Results: article PMC5218480 (PLoS ONE, 2017)

Test system: MV-4-11 cells
Assay: Gene expression microarray analysis (Affymetrix PrimeView) and GSEA
Format: cell-based, human
Design: RFU PODN (11730768_x_at) / Fold change /veh PODN (11730768_x_at) / RFU LINC00158 (11744669_a_at) / Fold change /veh LINC00158 (11744669_a_at) / RFU DUSP10 (11751237_a_at) / Fold change /veh DUSP10 (11751237_a_at) / RFU ID3 (11757404_x_at) / Fold change /veh ID3 (11757404_x_at) / RFU PLEKHG5 (11737974_s_at) / Fold change /veh PLEKHG5 (11737974_s_at) / RFU LRRC4B (11730491_at) / Fold change /veh LRRC4B (11730491_at) / RFU GIMAP4 (11747438_a_at) / Fold change /veh GIMAP4 (11747438_a_at) / RFU KRT8 (11758183_x_at) / Fold change /veh KRT8 (11758183_x_at) / RFU CNN1 (11734310_a_at) / Fold change /veh CNN1 (11734310_a_at) / RFU VPS37D (11726825_at) / Fold change /veh VPS37D (11726825_at) / RFU C10orf10 (11716522_x_at) / Fold change /veh C10orf10 (11716522_x_at) / RFU KIR2DL2 /// KIR2DL4 /// KIR2DL5A /// KIR2DL5B /// KIR2DS1 /// KIR2DS2 /// KIR2DS3 /// KIR2DS4 /// KIR3DL3 /// KIR3DL3 /// KIR3DS1 (11738374_at) / Fold change /veh KIR2DL2 /// KIR2DL4 /// KIR2DL5A /// KIR2DL5B /// KIR2DS1 /// KIR2DS2 /// KIR2DS3 /// KIR2DS4 /// KIR3DL3 /// KIR3DL3 /// KIR3DS1 (11738374_at) / RFU C1QL1 (11718748_at) / Fold change /veh C1QL1 (11718748_at) / RFU TMPRSS4 (11747572_a_at) / Fold change /veh TMPRSS4 (11747572_a_at) / RFU HAMP (11756126_x_at) / Fold change /veh HAMP (11756126_x_at) / RFU RNFT2 (11725882_a_at) / Fold change /veh RNFT2 (11725882_a_at) / RFU NR4A2 (11747474_a_at) / Fold change /veh NR4A2 (11747474_a_at) / RFU ABCC12 (11746883_a_at) / Fold change /veh ABCC12 (11746883_a_at) / RFU TMEM136 (11760407_x_at) / Fold change /veh TMEM136 (11760407_x_at) / RFU CLDN22 /// WWC2 (11732394_at) / Fold change /veh CLDN22 /// WWC2 (11732394_at) / RFU HLA-DPB1 (11760878_x_at) / Fold change /veh HLA-DPB1 (11760878_x_at) / RFU SPINT1 (11716480_a_at) / Fold change /veh SPINT1 (11716480_a_at) / RFU GAP43 (11754022_s_at) / Fold change /veh GAP43 (11754022_s_at) / RFU A4GNT (11735810_at) / Fold change /veh A4GNT (11735810_at) / RFU PRB3 (11715151_x_at) / Fold change /veh PRB3 (11715151_x_at) / RFU TUBB4B (11761932_at) / Fold change /veh TUBB4B (11761932_at) / RFU CAPN14 (11732068_a_at) / Fold change /veh CAPN14 (11732068_a_at) / RFU TMCC2 (11721928_a_at) / Fold change /veh TMCC2 (11721928_a_at) / RFU IRGQ (11745062_a_at) / Fold change /veh IRGQ (11745062_a_at) / RFU FAM174B (11720279_a_at) / Fold change /veh FAM174B (11720279_a_at) / RFU TMPRSS4 (11748680_a_at) / Fold change /veh TMPRSS4 (11748680_a_at) / RFU FAM212B (11763350_a_at) / Fold change /veh FAM212B (11763350_a_at) / RFU PLEKHG5 (11743358_a_at) / Fold change /veh PLEKHG5 (11743358_a_at) / RFU ZSCAN30 (11745921_a_at) / Fold change /veh ZSCAN30 (11745921_a_at) / RFU CMKLR1 (11741424_a_at) / Fold change /veh CMKLR1 (11741424_a_at) / RFU LOC101060620 /// MAPK8IP1 (11723275_at) / Fold change /veh LOC101060620 /// MAPK8IP1 (11723275_at) / RFU SPTSSB (11747773_x_at) / Fold change /veh SPTSSB (11747773_x_at) / RFU PRSS12 (11739890_at) / Fold change /veh PRSS12 (11739890_at) / RFU BIN1 (11741810_x_at) / Fold change /veh BIN1 (11741810_x_at) / RFU WNT11 (11732464_a_at) / Fold change /veh WNT11 (11732464_a_at) / RFU C10orf10 (11716521_a_at) / Fold change /veh C10orf10 (11716521_a_at) / RFU C5orf56 (11738089_at) / Fold change /veh C5orf56 (11738089_at) / RFU CYB561 (11721691_x_at) / Fold change /veh CYB561 (11721691_x_at) / RFU ANKRD19P (11752326_a_at) / Fold change /veh ANKRD19P (11752326_a_at) / RFU OR2T12 /// OR2T33 /// OR2T8 (11738714_s_at) / Fold change /veh OR2T12 /// OR2T33 /// OR2T8 (11738714_s_at) / RFU VCAN (11748164_a_at) / Fold change /veh VCAN (11748164_a_at) / RFU JSRP1 (11732532_at) / Fold change /veh JSRP1 (11732532_at) / RFU KRTAP10-11 (11738290_x_at) / Fold change /veh KRTAP10-11 (11738290_x_at) / RFU MYO3A (11730013_a_at) / Fold change /veh MYO3A (11730013_a_at) / RFU EBF3 (11725865_a_at) / Fold change /veh EBF3 (11725865_a_at) / RFU CAMK2N1 (11719241_x_at) / Fold change /veh CAMK2N1 (11719241_x_at) / RFU C5orf56 (11738088_a_at) / Fold change /veh C5orf56 (11738088_a_at) / RFU OLFML3 (11715873_a_at) / Fold change /veh OLFML3 (11715873_a_at) / RFU LOC100653217 /// NTM (11731650_a_at) / Fold change /veh LOC100653217 /// NTM (11731650_a_at) / RFU MAPK11 (11762145_a_at) / Fold change /veh MAPK11 (11762145_a_at) / RFU FIZ1 (11724087_x_at) / Fold change /veh FIZ1 (11724087_x_at) / RFU OASL (11726364_x_at) / Fold change /veh OASL (11726364_x_at) / RFU SOX15 (11748057_x_at) / Fold change /veh SOX15 (11748057_x_at) / RFU CD79A (11719716_a_at) / Fold change /veh CD79A (11719716_a_at) / RFU HIST1H1D (11736915_at) / Fold change /veh HIST1H1D (11736915_at) / RFU CASKIN2 (11723855_a_at) / Fold change /veh CASKIN2 (11723855_a_at) / RFU LOC730098 (11760151_x_at) / Fold change /veh LOC730098 (11760151_x_at) / RFU OR4N2 (11742367_at) / Fold change /veh OR4N2 (11742367_at) / RFU PRRT2 (11749266_a_at) / Fold change /veh PRRT2 (11749266_a_at) / RFU SNX32 (11753110_a_at) / Fold change /veh SNX32 (11753110_a_at) / RFU CDHR5 (11726645_a_at) / Fold change /veh CDHR5 (11726645_a_at) / RFU RCAN1 (11760418_a_at) / Fold change /veh RCAN1 (11760418_a_at) / RFU FAM167A (11723789_a_at) / Fold change /veh FAM167A (11723789_a_at) / RFU FAM26E (11764081_at) / Fold change /veh FAM26E (11764081_at) / RFU ISYNA1 (11749810_s_at) / Fold change /veh ISYNA1 (11749810_s_at) / RFU ACY1 (11761880_at) / Fold change /veh ACY1 (11761880_at) / RFU 11764098_at / Fold change /veh 11764098_at / RFU SAMD14 (11745864_x_at) / Fold change /veh SAMD14 (11745864_x_at) / RFU NPB (11741838_a_at) / Fold change /veh NPB (11741838_a_at) / RFU TMPRSS6 (11731388_a_at) / Fold change /veh TMPRSS6 (11731388_a_at) / RFU KRTAP10-2 (11738614_at) / Fold change /veh KRTAP10-2 (11738614_at) / RFU ARHGAP8 /// PRR5-ARHGAP8 (11727945_x_at) / Fold change /veh ARHGAP8 /// PRR5-ARHGAP8 (11727945_x_at) / RFU KRTAP5-7 /// NADSYN1 (11734609_at) / Fold change /veh KRTAP5-7 /// NADSYN1 (11734609_at) / RFU RASL12 (11751679_a_at) / Fold change /veh RASL12 (11751679_a_at) / RFU CDKN2B (11736163_a_at) / Fold change /veh CDKN2B (11736163_a_at) / RFU PRF1 (11729649_at) / Fold change /veh PRF1 (11729649_at) / RFU, ZNF638 /// ZNF638-IT1 / Fold change vs veh, ZNF638 /// ZNF638-IT1 / RFU, PANK3 / Fold change vs veh, PANK3 / RFU, SH3YL1 / Fold change vs veh, SH3YL1 / RFU, ZEB2 / Fold change vs veh, ZEB2 / RFU, NRIP1 / Fold change vs veh, NRIP1 / RFU, PTTG1IP / Fold change vs veh, PTTG1IP / RFU, CAPN2 / Fold change vs veh, CAPN2 / RFU, MED14 / Fold change vs veh, MED14 / RFU, SNORA58 / Fold change vs veh, SNORA58 / RFU, C1orf63 / Fold change vs veh, C1orf63 / RFU, LRRFIP1 / Fold change vs veh, LRRFIP1 / RFU, NDUFAF7 / Fold change vs veh, NDUFAF7 / RFU, SLC12A2 / Fold change vs veh, SLC12A2 / RFU, IBTK / Fold change vs veh, IBTK / RFU, ESF1 / Fold change vs veh, ESF1 / Fold change vs veh, TMEM50B / RFU, TAOK1 / Fold change vs veh, TAOK1 / RFU, ACBD3 / Fold change vs veh, ACBD3 / RFU, TMA16 / Fold change vs veh, TMA16 / RFU, RWDD3 / Fold change vs veh, RWDD3 / RFU, BCAT1 / Fold change vs veh, BCAT1 / RFU, EDEM3 / Fold change vs veh, EDEM3 / RFU, TMEM33 / Fold change vs veh, TMEM33 / RFU, WDR75 / Fold change vs veh, WDR75 / RFU, AHCTF1 / Fold change vs veh, AHCTF1 / RFU, TFRC / Fold change vs veh, TFRC / RFU, ZDHHC17 / Fold change vs veh, ZDHHC17 / RFU, NOM1 / Fold change vs veh, NOM1 / RFU, ARL8B / Fold change vs veh, ARL8B / RFU, ZBTB11 / Fold change vs veh, ZBTB11 / RFU, TAMM41 / Fold change vs veh, TAMM41 / RFU, KIAA1704 /// LOC100996395 / Fold change vs veh, KIAA1704 /// LOC100996395 / RFU, ING1 / Fold change vs veh, ING1 / RFU, TRMT61B / Fold change vs veh, TRMT61B / RFU, FUBP3 / Fold change vs veh, FUBP3 / RFU, TP53 / Fold change vs veh, TP53 / RFU, TNKS2 / Fold change vs veh, TNKS2 / RFU, ZFP14 / Fold change vs veh, ZFP14 / RFU, ACTR2 / Fold change vs veh, ACTR2 / RFU, PPP3R1 / Fold change vs veh, PPP3R1 / RFU, PIK3R1 / Fold change vs veh, PIK3R1 / RFU, HNRNPA1 / Fold change vs veh, HNRNPA1 / RFU, RNF170 / Fold change vs veh, RNF170 / RFU, ZNF28 / Fold change vs veh, ZNF28 / RFU, RNGTT / Fold change vs veh, RNGTT / RFU, OGT / Fold change vs veh, OGT / RFU, BRD1 / Fold change vs veh, BRD1 / RFU, MARS / Fold change vs veh, MARS / RFU, ZNF655 / Fold change vs veh, ZNF655 / RFU, FAHD1 / Fold change vs veh, FAHD1 / RFU, BDP1 / Fold change vs veh, BDP1 / RFU, LRRCC1 / Fold change vs veh, LRRCC1 / RFU, ARID1A / Fold change vs veh, ARID1A / RFU, ZNF146 / Fold change vs veh, ZNF146 / RFU, ZNF330 / Fold change vs veh, ZNF330 / RFU, GPN3 / Fold change vs veh, GPN3 / RFU, C9orf123 / Fold change vs veh, C9orf123 / RFU, N4BP2L2 / Fold change vs veh, N4BP2L2 / RFU, ARFIP1 / Fold change vs veh, ARFIP1 / RFU, FAM179B / Fold change vs veh, FAM179B / RFU, BCL10 / Fold change vs veh, BCL10 / RFU, UHRF1BP1L / Fold change vs veh, UHRF1BP1L / RFU, BET1 / Fold change vs veh, BET1 / RFU, CNOT2 / Fold change vs veh, CNOT2 / RFU, ZNF268 / Fold change vs veh, ZNF268 / Fold change vs veh, ZNF507 / RFU, DGCR2 / Fold change vs veh, DGCR2 / RFU, WDSUB1 / Fold change vs veh, WDSUB1 / Fold change vs veh, HSP90B1 /// MIR3652 / RFU, ADSS / Fold change vs veh, ADSS / RFU, GK / Fold change vs veh, GK / RFU, ZNF148 / Fold change vs veh, ZNF148 / RFU, TAF9 / Fold change vs veh, TAF9 / RFU, SLC1A5 / Fold change vs veh, SLC1A5 / RFU, SLMO2 / Fold change vs veh, SLMO2 / RFU, ABCC4 / Fold change vs veh, ABCC4 / RFU, LOC101060439 /// RAP1B / Fold change vs veh, LOC101060439 /// RAP1B / RFU, RFX7 / Fold change vs veh, RFX7 / RFU, GTPBP10 / Fold change vs veh, GTPBP10 / RFU, CNEP1R1 / Fold change vs veh, CNEP1R1 / RFU, BIVM-ERCC5 /// ERCC5 / Fold change vs veh, BIVM-ERCC5 /// ERCC5 / RFU, ILF3 / Fold change vs veh, ILF3 / RFU 11762660_at / Fold change /veh 11762660_at / RFU VCAN (11757783_s_at) / Fold change /veh VCAN (11757783_s_at) / RFU DDX43 (11728927_at) / Fold change /veh DDX43 (11728927_at) / RFU KRT8 (11758188_x_at) / Fold change /veh KRT8 (11758188_x_at) / RFU NKD1 (11759106_at) / Fold change /veh NKD1 (11759106_at) / RFU SRD5A1 (11742802_a_at) / Fold change /veh SRD5A1 (11742802_a_at) / RFU TPSAB1 /// TPSB2 (11721975_s_at) / Fold change /veh TPSAB1 /// TPSB2 (11721975_s_at) / RFU GSTM3 (11746129_a_at) / Fold change /veh GSTM3 (11746129_a_at) / RFU IL23R (11737362_x_at) / Fold change /veh IL23R (11737362_x_at) / RFU TMEM51 (11727254_a_at) / Fold change /veh TMEM51 (11727254_a_at) / RFU PIWIL2 (11732686_x_at) / Fold change /veh PIWIL2 (11732686_x_at) / RFU ORM1 (11744905_x_at) / Fold change /veh ORM1 (11744905_x_at) / RFU CCDC152 (11743942_at) / Fold change /veh CCDC152 (11743942_at) / RFU ECM1 (11717891_a_at) / Fold change /veh ECM1 (11717891_a_at) / RFU IL23R (11748794_a_at) / Fold change /veh IL23R (11748794_a_at) / RFU TNFAIP8L3 (11732012_x_at) / Fold change /veh TNFAIP8L3 (11732012_x_at) / RFU MBOAT4 (11741988_at) / Fold change /veh MBOAT4 (11741988_at) / RFU 11764193_at / Fold change /veh 11764193_at / RFU TMEM53 (11763286_at) / Fold change /veh TMEM53 (11763286_at) / RFU MAGEB2 (11727129_at) / Fold change /veh MAGEB2 (11727129_at) / RFU TMEM200A (11744735_a_at) / Fold change /veh TMEM200A (11744735_a_at) / RFU CCDC152 (11751479_a_at) / Fold change /veh CCDC152 (11751479_a_at) / RFU FAM211A (11726209_a_at) / Fold change /veh FAM211A (11726209_a_at) / RFU RGS16 (11746705_a_at) / Fold change /veh RGS16 (11746705_a_at) / RFU VCAN (11755009_s_at) / Fold change /veh VCAN (11755009_s_at) / RFU RHOB (11743442_s_at) / Fold change /veh RHOB (11743442_s_at) / RFU RGS16 (11720943_a_at) / Fold change /veh RGS16 (11720943_a_at) / RFU RGS16 (11720944_at) / Fold change /veh RGS16 (11720944_at) / RFU, VPS4B / Fold change vs veh, VPS4B / RFU, CREB1 / Fold change vs veh, CREB1 / RFU, DNAJC13 / Fold change vs veh, DNAJC13 / RFU, GNAQ / Fold change vs veh, GNAQ / RFU, CDK5R1 / Fold change vs veh, CDK5R1 / RFU, ZRANB3 / Fold change vs veh, ZRANB3 / RFU, CUL4A / Fold change vs veh, CUL4A / RFU, CCNY / Fold change vs veh, CCNY / RFU, UFL1 / Fold change vs veh, UFL1 / RFU, COG3 / Fold change vs veh, COG3 / RFU, DIAPH2 / Fold change vs veh, DIAPH2 / RFU, SKA2 / Fold change vs veh, SKA2 / RFU, AFF3 / Fold change vs veh, AFF3 / RFU, LMF1 / Fold change vs veh, LMF1 / RFU, IPO11 / Fold change vs veh, IPO11 / RFU, DFFB / Fold change vs veh, DFFB / RFU, FOXP1 / Fold change vs veh, FOXP1 / RFU, CARD8 / Fold change vs veh, CARD8 / RFU, STRN3 / Fold change vs veh, STRN3 / RFU, ADK / Fold change vs veh, ADK / RFU, RASSF2 / Fold change vs veh, RASSF2 / RFU, WIPF1 / Fold change vs veh, WIPF1 / RFU, LARP1B / Fold change vs veh, LARP1B / RFU, RASA1 / Fold change vs veh, RASA1 / RFU, RB1 / Fold change vs veh, RB1 / RFU, PPFIA1 / Fold change vs veh, PPFIA1 / RFU, MAT2A / Fold change vs veh, MAT2A / RFU, CCT5 / Fold change vs veh, CCT5 / RFU, WDR92 / Fold change vs veh, WDR92 / RFU, CUX1 / Fold change vs veh, CUX1 / RFU, TTC7A / Fold change vs veh, TTC7A / RFU, TMEM135 / Fold change vs veh, TMEM135 / RFU, DEPTOR / Fold change vs veh, DEPTOR / RFU, CPM / Fold change vs veh, CPM / RFU, DNAJB6 / Fold change vs veh, DNAJB6 / RFU, CACNA2D3 / Fold change vs veh, CACNA2D3 / RFU, DTX4 / Fold change vs veh, DTX4 / RFU, TFCP2 / Fold change vs veh, TFCP2 / RFU, GMCL1 /// GMCL1P1 / Fold change vs veh, GMCL1 /// GMCL1P1 / RFU, AEBP2 / Fold change vs veh, AEBP2 / RFU, SNHG1 /// SNORD22 /// SNORD25 /// SNORD26 /// SNORD27 /// SNORD28 /// SNORD29 /// SNORD31 / Fold change vs veh, SNHG1 /// SNORD22 /// SNORD25 /// SNORD26 /// SNORD27 /// SNORD28 /// SNORD29 /// SNORD31 / Fold change (Aza/veh), C12orf56 (ProbeSet 11735607_a_at) / Fold change (ACY-1035/veh), C12orf56 (ProbeSet 11735607_a_at) / Fold change (Aza/veh), FGFR1OP (ProbeSet 11751329_s_at) / Fold change (ACY-1035/veh), FGFR1OP (ProbeSet 11751329_s_at) / Fold change (Aza/veh), VPS36 (ProbeSet 11739960_a_at) / Fold change (ACY-1035/veh), VPS36 (ProbeSet 11739960_a_at) / RFU SYPL1 (11715823_x_at) / Fold change /veh SYPL1 (11715823_x_at) / RFU IGFBP7 (11715501_s_at) / Fold change /veh IGFBP7 (11715501_s_at) / RFU REEP3 (11722064_at) / Fold change /veh REEP3 (11722064_at) / RFU IGLL1 (11728026_x_at) / Fold change /veh IGLL1 (11728026_x_at): dose or concentration left out as unconfirmed
Settings: MV-4-11 cells, 48 hours

Nc1ncn([C@@H]2O[C@H](CO)[C@@H](O)[C@H]2O)c(=O)n1 [azacitidine]
RFU HLA-DPB1 (11760878_x_at): 15.97 RFU
